Entries after “also recorded” stand apart in the source; their conditions may differ.
Key:
FDC1 [1] = biological target: T1, FDC1 (Saccharomyces cerevisiae, UniProt Q03034); test: Substrate specificity of FDC1; assay type: biochemical; settings: 0.2 mM substrate, 0.5 mg purified FDC1, 5 minutes at 30° C., pH 6.5
T1 construct: N-terminal 6xHis leader of vector pDEST17 (own knowledge of the vector); made in house; host or cells: E. coli BL21 (DE3)
T1 sequence (Q03034 1-503): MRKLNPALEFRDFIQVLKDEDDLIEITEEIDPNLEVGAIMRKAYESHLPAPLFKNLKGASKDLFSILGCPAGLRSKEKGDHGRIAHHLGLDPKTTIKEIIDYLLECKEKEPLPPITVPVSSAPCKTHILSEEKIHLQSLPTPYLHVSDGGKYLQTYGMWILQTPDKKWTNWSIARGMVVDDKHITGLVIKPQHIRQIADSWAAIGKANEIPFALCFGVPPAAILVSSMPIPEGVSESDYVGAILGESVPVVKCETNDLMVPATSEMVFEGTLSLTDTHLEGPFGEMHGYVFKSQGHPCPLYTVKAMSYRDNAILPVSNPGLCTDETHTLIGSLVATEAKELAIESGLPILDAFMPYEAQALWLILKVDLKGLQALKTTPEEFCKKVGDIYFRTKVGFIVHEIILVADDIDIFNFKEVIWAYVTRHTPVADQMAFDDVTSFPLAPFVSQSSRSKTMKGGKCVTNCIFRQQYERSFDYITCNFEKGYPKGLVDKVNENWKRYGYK
Protocol: The reaction mixtures were then incubated for 5 minutes at 30° C. After the reaction 1 mL of propanol was added to the reaction mixtures to solubilize styrene. The experimental negative control used the same conditions except the reaction mixture contained no substrate.

FDC1 [2] = biological target: T1, FDC1; test: Effect of metal ions on FDC1 activity; assay type: biochemical; settings: 10 mM metal ion, 1.4 mM tCA, purified FDC1, 5 minutes at 30° C.
Protocol: (§1) After the reaction, 1 mL of propanol was added to the reaction mixtures to solubilize styrene. The experimental control used the same conditions except the reaction mixture contained no metal ions. The experimental negative control used the same conditions except the reaction mixture contained no substrate.
as §1, with “ions or EDT A.” for “ions.”

styrene production [3] = test: Fermentation of E. coli with PAL2-FDC fusion with or without srpABC pump, Phe as substrate; assay type: cell-based; settings: control contains only the fusion of PAL2 and FDC
Description: Some bacteria have developed multiple mechanisms to adapt unfavorable conditions. For example, Pseudomonas strains have about three strategies for addressing organic solvent toxicity, i.e. modified membrane structure, active efflux pumps, and enzymatic detoxification. Here, a recombinant E. coli host expressing an efflux pump (called solvent-resistant-pump) was produced. The pump, a member of the ABC-transporter family, is composed of three subunits, srpA, periplasmic linker; srpB, inner membrane transporter; and srpC, out-membrane channels. The full-length of the srpABC pump sequence (˜6 kb) was cloned from the genomic DNA of P. putida. The clone was first inserted to pENTR vector with Zeocin resistance and then to E. coli expression vector pCONA-2-DEST with Kanamycin resistance.
Finally, the pump was transformed to the E. coli strain BL21 (DE3) containing the fusion of PAL2 and FDC which is resistant to Ampicillin. After the test expression of 5 clones in flasks, one clone was chosen for further experiment with fermenter. Fifty milliliters of overnight culture were inoculated in 1.5 L LB medium containing appropriate antibiotics. When cells reach an OD600˜0.8, 5 mM of IPTG was added to the culture for induction. […] Samples from the overnight fermentation (˜16 hrs) were taken and analyzed by HPLC in coupling with an Acclaim RSLC C18 column and detected at 280 nm. […]

FDC1 [4] = biological target: T1, FDC1; test: pH stability of FDC1; assay type: biochemical; settings: incubated for 30 minutes at pH 6.0 prior to the reaction
Protocol: The protein (crude extract, 586 μL) was added to 112 μL of 500 mM buffers at pH values of 5, 6, 7, 8, 9, 10, and 11, and incubated at 30° C. for 30 minutes. After treated in various pH buffers, an aliquot of protein (42 mg) was added to a final concentration of 100 mM potassium phosphate buffer pH 6.5, 5 mM DTT, 1.4 mM cinnamic acid and brought up to a final volume of 2 mL. The reaction mixture was then incubated for 8 minutes at 30° C. The styrene was extracted by the addition of 250 μL butanol. The experimental negative control used the same conditions except the reaction mixture contained no substrate. […] This protein is stable and active in a wide range of pH and can be used for industrial production of styrene.

FDC1 [5] = biological target: T1, FDC1; test: Kinetic analysis of purified wild type FDC1 (tCA to styrene, HPLC); assay type: biochemical; settings: for Km / Vmax: tCA as substrate (100-2000 μM), 0.5 mg purified protein, 5 min at 30° C.
Protocol: The standard reaction mixture for decarboxylation consisted of 25 mM potassium phosphate buffer (pH 6.5) containing 5 mM dithiothreitol, 1.4 mM trans-cinnamic acid and enzyme (0.50 mg) to a final volume of 1.0 mL. The reaction was started by the addition of the enzyme and was incubated at 30° C. for 5 min. The reaction was stopped by adding 24 μl of glacial acetic acid (17.4N) after which 2-propanol was added in equal volume to the reaction mixture in order to solubilize the product. The amount of styrene produced was measured by HPLC using a Dionex Ultimate3000 UHPLC equipped with an auto sampler, diode array (UV/Vis) detector, and reverse phase Acclaim 120 C18 column (2.1×150 […] Dionex USA). Samples (10 μl) were injected for analyses at a total constant flow rate of 0.6 ml/minute. The samples were resolved in 0.15% acetic acid (A) with an increasing concentration gradient of acetonitrile containing 0.15% acetic acid (B) for 0 to 4 min, 5%; 4 to 5 minutes, 5 to 40%; 5 to 7 min, 40 to 45%; 7 to 8 min, 45 to 85%; 8 to 12 min, 85 to 95%; 12 to 14 minutes, 95 to 5% at a flow rate of […]. The specific activity was expressed in U (nmol styrene)·mg^−1·min^−1.
To examine the catalytic efficiency of this protein, kinetic studies of FDC1 was conducted using tCA as the substrate. […] The reactions were performed in a total of 1.0 mL standard reaction mixture with 0.5 mg purified protein, and were allowed to proceed for 5 min at 30° C. The styrene was extracted with 250 μL butanol. The experimental negative control used the same conditions except the reaction mixture contained no substrate. Activities were quantified by standard assay method. Duplicate assays were performed and averaged. The Vmax and Km were determined by nonlinear regression analysis of the velocity-concentration data fit to the Michaelis-Menten equation.

styrene production [6] = test: Styrene production by wild type FDC1 in anaerobic versus aerobic condition; assay type: cell-based
Protocol: Production of styrene by maintaining the culture in an aerobic environment was conducted. […] Using the STRATA-X® column, we can trap the volatile styrene and can maintain aerobic conditions.

styrene production [7] = test: Expression of FDC-PAL2 fusion protein in E. coli, styrene in medium; assay type: cell-based; settings: expressed in E. coli
Description: Artificial channels were included in the styrene production. To construct the fusion protein of PAL2 and FDC using Gateway technology, four primers were designed for PCR amplification. […] The FDC gene (˜1.5 kb) and the PAL2 gene (2.2 kb) were amplified using the above primers and cloned into the Gateway vector pDEST17. The constructs of the fusion protein of PAL2 and FDC were transformed to BL21(DE3). Fusion proteins of FDC mutant and PAL also can be obtained by the above process.
This fusion protein produced styrene at an amount that was about 6-fold higher than that of FDC expressing in E. coli (95 mg/Lin medium). This amount of styrene was also much higher than that of non-fused proteins of PAL2 and FDC (expressed in yeast, with 69 mg/L styrene detected).

FDC1 [8] = biological target: T1, FDC1; test: Temperature stability of FDC1; assay type: biochemical
Protocol: After incubation at various temperatures, an aliquot of protein (42 mg) was added to 25 mM potassium phosphate buffer pH 6.5, 5 mM DTT, and 1.4 mM tCA to a final volume of 1 mL. The reaction mixtures were incubated for 8 minutes at 30° C. The styrene was extracted with 250 μl butanol and quantified by HPLC using C18 column. The experimental negative control used the same conditions except the reaction mixture contained no substrate. The enzyme was stable at 50° C. (FIG. 7).
After the protein was incubated for various times, an aliquot (42 mg) was added to 25 mM potassium phosphate buffer pH 6.5, 5 mM DTT, and 1.4 mM tCA to a final volume of 1 mL. The reaction mixtures were then incubated for 8 minutes at 30° C. Styrene was extracted by adding 250 μL butanol to the reaction mixtures and quantified by HPLC. The experimental negative control used the same conditions except the reaction mixture contained no substrate. The protein was stable at 50° C. for 2 hr (FIG. 8).

## COc1ccc(OC)c(C=CC(=O)O)c1 [2,5-dimethoxycinnamic acid]
FDC1 [1]
  activity compared with that of tCA (relative activity): did not show any activity

## O=C(O)C=Cc1ccccc1O [2-hydroxycinnamic acid]
FDC1 [1]
  activity compared with that of tCA (relative activity): did not show any activity

## Cc1ccccc1C=CC(=O)O [2-methylcinnamic acid]
FDC1 [1]
  activity compared with that of tCA (relative activity): 35%

## COc1ccc(C=CC(=O)O)cc1OC [3,4-dimethoxycinnamic acid]
FDC1 [1]
  activity compared with that of tCA (relative activity): did not show any activity

## O=C(O)C=Cc1cccc(O)c1 [3-hydroxycinnamic acid]
FDC1 [1]
  activity compared with that of tCA (relative activity): did not show any activity

## O=C(O)C=Cc1ccc(O)cc1 [4-hydroxycinnamic acid]
FDC1 [1]
  activity compared with that of tCA (relative activity): 68%

## [Ca+2].[Cl-].[Cl-] [Ca^2+, CaCl2]
FDC1 [2]
  effect of metal ions on FDC1 activity: increased the activity of FDC1

## [Cl][Fe]([Cl])[Cl] [Fe^3+, FeCl3]
FDC1 [2]
  effect of metal ions on FDC1 activity: increased the activity of FDC1

## O=S(=O)([O-])[O-].[Mg+2] [Mg^2+, MgSO4]
FDC1 [2]
  effect of metal ions on FDC1 activity: increased the activity of FDC1

## O=S(=O)([O-])[O-].[Zn+2] [Zn^2+, ZnSO4]
FDC1 [2]
  effect of metal ions on FDC1 activity: increased the activity of FDC1

## COc1cc(/C=C/C(=O)O)ccc1O [ferulic acid]
FDC1 [1]
  activity compared with that of tCA (relative activity): 57%

## O=C(O)/C=C/c1ccccc1 [t-cinnamic acid, trans-cinnamic acid]
FDC1 [1]
  activity compared with that of tCA (relative activity): 100%

## ABC-transporter: solvent-resistant efflux pump srpABC cloned from P. putida, subunits srpA, srpB, srpC
Styrene production [3]
  styrene production with ABC-transporter compared to control without: significantly increased; also recorded: enhanced nearly four times

B1: FDC1: Saccharomyces cerevisiae cinnamic acid decarboxylase, also termed ferulic acid decarboxylase; 503 amino acids, SEQ ID NO:8 (protein, listed as Saccharomyces cerevisiae)
chain: MRKLNPALEFRDFIQVLKDEDDLIEITEEIDPNLEVGAIMRKAYESHLPAPLFKNLKGASKDLFSILGCPAGLRSKEKGDHGRIAHHLGLDPKTTIKEIIDYLLECKEKEPLPPITVPVSSAPCKTHILSEEKIHLQSLPTPYLHVSDGGKYLQTYGMWILQTPDKKWTNWSIARGMVVDDKHITGLVIKPQHIRQIADSWAAIGKANEIPFALCFGVPPAAILVSSMPIPEGVSESDYVGAILGESVPVVKCETNDLMVPATSEMVFEGTLSLTDTHLEGPFGEMHGYVFKSQGHPCPLYTVKAMSYRDNAILPVSNPGLCTDETHTLIGSLVATEAKELAIESGLPILDAFMPYEAQALWLILKVDLKGLQALKTTPEEFCKKVGDIYFRTKVGFIVHEIILVADDIDIFNFKEVIWAYVTRHTPVADQMAFDDVTSFPLAPFVSQSSRSKTMKGGKCVTNCIFRQQYERSFDYITCNFEKGYPKGLVDKVNENWKRYGYK
FDC1 [4]
  relative activity after incubation at pH 6.0: 100%
FDC1 [5]; tCA as substrate
  catalytic efficiency: 8.4 M^−1 S^−1
FDC1 [5]; listed as wild type FDC
  Km: ~688 µM
  Vmax: about 6.17 nmol·mg^−1·min^−1
FDC1 [5]; listed as wild type FDC1
  Km: 688 µM
  Vmax: 6.17 nmol/mg/min
Styrene production [6]
  amount of styrene in anaerobic condition compared to aerobic condition: half the amount of styrene
Styrene production [7]
  styrene in medium: 95 mg/L
FDC1 [8]; after incubation at 50° C. for about 2 hours
  activity retained: 100%
FDC1 [8]; crude extract incubated at 50° C. for 2 hr
  stability at 50° C. over time: stable
FDC1 [8]; incubated 30 minutes at 50° C. prior to reaction
  temperature stability: stable
FDC1 [8]; incubated at 50° C. for 30 minutes prior to the reaction
  relative activity after incubation at 50° C.: 100%

From patent US10752921B2, “Enzymes and methods for styrene synthesis” (Phytogene, Inc., priority 2012, dated 2020)
